Reference: patent US9125388B2, “Biological control” (Isis Innovation Limited, priority 1999, dated 2015)

Tested on: Yp3 tTa, tRe Ras64B^V12 on the 2nd chromosome
Assay: Recombinant chromosome experiments / maternal transmission of Tc (Table 1): parents raised on supplement, progeny on normal food, adults by sex
Type: in vivo, Drosophila melanogaster
Conditions: 25° C.
Experimental: 40-45 young females and 20-25 young males raised at 25° C. upon food with the indicated tetracycline supplement were allowed to mate, then transferred to normal (tetracycline-free) food after 3-4 days. These flies were transferred to fresh vials of normal food every day for 12 days, then removed on the 13th day. All the vials were incubated at 25° C. while the progeny developed. The numbers of male and female progeny emerging as adults in each vial were recorded.
A standard range of additive concentrations were used in the following experiments (0.05-20 μg/ml). […] (=“not done”)
All the preceding experiments were performed at 25° C., the standard temperature for Drosophila culture. However, the insects in the wild would clearly be exposed to varying temperatures, so we investigated the extent to which the efficiency of the system is affected by temperature. As with the recombinant chromosome experiments, 40-45 young virgin females and 20-25 young males raised at 25° C. upon food with the indicated tetracycline supplement were allowed to mate, then transferred to normal (tetracycline-free) food after 3-4 days. These flies were transferred to fresh vials of normal food every day. The numbers of male and female progeny emerging as adults in each vial were recorded. These experiments were performed at either 18° C. or 29° C.
We used a strain of Drosophila in which females, but not males, require Tc for viability.
A strain homozygous for second chromosome insertions of both Yp3-tTA and tRe-Ras64B^V12 was tested for the effect of parental dietary Tc. 40-45 young females and 20-25 young males raised at 25° C. upon food with the indicated tetracycline supplement were allowed to mate, then transferred to normal (tetracycline-free) food after 3-4 days. These flies were transferred to fresh vials of normal food every day for 12 days, and then removed on the 13th day. All the vials were incubated at 25° C. while the progeny developed. The total numbers of male and female progeny emerging as adults were recorded.

[1] = parents raised on Tc 0.1 μg/ml, Day 8 on normal food
[2] = parents raised on Tc 0.1 μg/ml, Day 9 on normal food
[3] = parents raised on Tc 0.1 μg/ml, Day 10 on normal food
[4] = parents raised on Tc 0.1 μg/ml, Day 11 on normal food
[5] = parents raised on Tc 0.1 μg/ml, Day 12 on normal food
[6] = parents raised on Tc 0.1 μg/ml, Total of Days 1-12 on normal food
[7] = parents raised on Tc 1 μg/ml, Day 8 on normal food
[8] = parents raised on Tc 1 μg/ml, Day 9 on normal food
[9] = parents raised on Tc 1 μg/ml, Day 10 on normal food
[10] = parents raised on Tc 1 μg/ml, Day 11 on normal food
[11] = parents raised on Tc 1 μg/ml, Day 12 on normal food
[12] = parents raised on Tc 1 μg/ml, Total of Days 1-12 on normal food
[13] = parents raised on Tc 5 μg/ml, Day 8 on normal food
[14] = parents raised on Tc 5 μg/ml, Total of Days 1-12 on normal food
[15] = parents raised on Tc 20 μg/ml, Day 1 on normal food
[16] = parents raised on Tc 20 μg/ml, Day 2 on normal food
[17] = parents raised on Tc 20 μg/ml, Day 3 on normal food
[18] = parents raised on Tc 20 μg/ml, Day 4 on normal food
[19] = parents raised on Tc 20 μg/ml, Day 5 on normal food
[20] = parents raised on Tc 20 μg/ml, Day 6 on normal food
[21] = parents raised on Tc 20 μg/ml, Day 7 on normal food
[22] = parents raised on Tc 100 μg/ml, Day 1 on normal food
[23] = parents raised on Tc 100 μg/ml, Day 2 on normal food
[24] = parents raised on Tc 100 μg/ml, Day 3 on normal food
[25] = parents raised on Tc 100 μg/ml, Day 4 on normal food
[26] = parents raised on Tc 100 μg/ml, Day 5 on normal food
[27] = parents raised on Tc 100 μg/ml, Day 6 on normal food
[28] = parents raised on Tc 100 μg/ml, Day 7 on normal food
[29] = parents raised on Tc 500 μg/ml, Day 1 on normal food

SMILES: CN(C)[C@@H]1C(O)=C(C(N)=O)C(=O)[C@@]2(O)C(O)=C3C(=O)c4c(O)cccc4[C@@](C)(O)[C@H]3C[C@@H]12 [Tetracycline, tetracycline]
- ♀ progeny emerging as adults [1]: 0
- ♂ progeny emerging as adults [1]: 105
- ♀ progeny emerging as adults [2]: 0
- ♂ progeny emerging as adults [2]: 133
- ♀ progeny emerging as adults [3]: 0
- ♂ progeny emerging as adults [3]: 93
- ♀ progeny emerging as adults [4]: 0
- ♂ progeny emerging as adults [4]: 131
- ♀ progeny emerging as adults [5]: 0
- ♂ progeny emerging as adults [5]: 121
- ♀ progeny emerging as adults [6]: 0
- ♂ progeny emerging as adults [6]: 1363
- ♀ progeny emerging as adults [7]: 0
- ♂ progeny emerging as adults [7]: 90
- ♀ progeny emerging as adults [8]: 0
- ♂ progeny emerging as adults [8]: 119
- ♀ progeny emerging as adults [9]: 0
- ♂ progeny emerging as adults [9]: 94
- ♀ progeny emerging as adults [10]: 0
- ♂ progeny emerging as adults [10]: 98
- ♀ progeny emerging as adults [11]: 0
- ♂ progeny emerging as adults [11]: 100
- ♀ progeny emerging as adults [12]: 0
- ♂ progeny emerging as adults [12]: 1360
- ♀ progeny emerging as adults [13]: 0
- ♂ progeny emerging as adults [13]: 119
- ♂ progeny emerging as adults (parents raised on Tc 5 μg/ml, Day 9 on normal food): 96
- ♀ progeny emerging as adults (parents raised on Tc 5 μg/ml, Day 12 on normal food): 0
- ♀ progeny emerging as adults [14]: 0
- ♂ progeny emerging as adults [14]: 1384
- ♀ progeny emerging as adults [15]: 0
- ♂ progeny emerging as adults [15]: 89
- ♀ progeny emerging as adults [16]: 0
- ♂ progeny emerging as adults [16]: 107
- ♀ progeny emerging as adults [17]: 0
- ♂ progeny emerging as adults [17]: 107
- ♀ progeny emerging as adults [18]: 0
- ♂ progeny emerging as adults [18]: 98
- ♀ progeny emerging as adults [19]: 0
- ♂ progeny emerging as adults [19]: 88
- ♀ progeny emerging as adults [20]: 0
- ♂ progeny emerging as adults [20]: 102
- ♀ progeny emerging as adults [21]: 0
- ♂ progeny emerging as adults [21]: 107
- ♀ progeny emerging as adults [22]: 0
- ♂ progeny emerging as adults [22]: 129
- ♀ progeny emerging as adults [23]: 0
- ♂ progeny emerging as adults [23]: 136
- ♀ progeny emerging as adults [24]: 0
- ♂ progeny emerging as adults [24]: 128
- ♀ progeny emerging as adults [25]: 0
- ♂ progeny emerging as adults [25]: 127
- ♀ progeny emerging as adults [26]: 0
- ♂ progeny emerging as adults [26]: 135
- ♀ progeny emerging as adults [27]: 0
- ♂ progeny emerging as adults [27]: 144
- ♀ progeny emerging as adults [28]: 0
- ♂ progeny emerging as adults [28]: 107
- ♀ progeny emerging as adults [29]: 2
- ♂ progeny emerging as adults [29]: 136
